The series has as its system generalized anxiety and/or post-traumatic stress disorder (PTSD). Kind of series: Inhaled dry powder given to subjects for generalized anxiety and/or PTSD. The class given is in vivo, human. The conditions noted are these: encapsulated by HPMCAS, inhaler. The procedure: Three male subjects and one subject were administered doses of 5 mg, 10 mg, and 15 mg of psilocybin. Each individual dosage level was administered about three weeks apart for the treatment of generalized anxiety and/or post-traumatic stress disorder (PTSD). In a separate experiment, the subjects were administered doses of 1 mg, 5 mg, and 10 mg of 4-AoC-DMT (O-Acetylpsilocin). Each individual dosage level was administered about three weeks apart for the treatment of generalized anxiety and/or post-traumatic stress disorder (PTSD). The dry powder pharmaceutical compositions comprised psilocybin or 4-AoC-DMT encapsulated by HPMCAS using the methods described herein (e.g., spay drying). The encapsulated dry powder was administered with an inhaler.

Each structure is given as a SMILES string.

On to `CC(=O)Oc1cccc2[nH]cc(CCN(C)C)c12` [4-AoC-DMT, 4-Acetoxy-N,N-dimethyltryptamine], for which the adverse effects noted result reads like this: (4-AoC-DMT 1 mg and 5 mg, four subjects) “No adverse effects”; (4-AoC-DMT 10 mg, indicated by 3 male patients and 1 patient) “too much”. Further, the “effect on anxiety in the subjects” value (doses of 1 mg and 5 mg of 4-AoC-DMT, each about three weeks apart, three male subjects and one subject) is “reduced anxiety”.
Turning to `CN(C)CCc1c[nH]c2cccc(OP(=O)(O)O)c12` [psilocybin, 4-phosphoryloxy-N,N-dimethyltryptamine], the adverse effects noted result (psilocybin 5 mg, 10 mg and 15 mg, four subjects) is recorded as “No adverse effects”.
